Reference: publication PMC8067507, “Aryl Urea Based Scaffolds for Multitarget Drug Discovery in Anticancer Immunotherapies” (Pharmaceuticals, 2021)

Tests used:
[1] = target: T1, PD-L1 (Homo sapiens, UniProt Q9NZQ7); experiment: PD-L1 quantification by flow cytometry in HT-29; assay type: cell-based; details: HT-29, 10 μM, 24 h, referred to control (DMSO)
Description: (§1) We evaluated the effect of the selected compounds on PD-L1 and on c-Myc proteins by flow cytometry after 24 h treatment at 10 μM concentration of compounds. Both, PD-L1 and c-Myc were relatively determined using DMSO treated cells as a negative control and BMS-8 as a positive one.
(§2) For the detection of total PD-L1 and c-Myc, cancer cells were seeded (3 × 10^5 cells/well) in 6-well plates and were incubated with the corresponding compounds for 24 h. Then they were collected, fixed, treated with 0.5% Triton^TM X-100 and stained with Alexa Fluor® 647 Rabbit monoclonal Anti-PD-L1 (ab215251) and FITC Rabbit monoclonal anti-c-Myc (ab223913).
(§3) We also checked results performing ELISA tests. For ELISA tests, lysates were collected, protein quantification was carried out by Bradford test and, then, PD-L1 and c-Myc were quantified using Human PD-L1 ELISA Kit 28-8 (ab214565) and c-Myc (Total) Human ELISA Kit (KHO2041), respectively, according to the manufacturer’s instructions.

[2] = target: T1, PD-L1; experiment: PD-L1 quantification by flow cytometry in A-549; assay type: cell-based; set-up: endogenous in cells; host or cells: A-549 cancer cells; details: A-549, 10 μM, 24 h, referred to control (DMSO)
Description: as §1, §2, §3

[3] = tested on: HT-29 cells; experiment: Cell proliferation evaluation in co-cultures: HT-29 with Jurkat T cells; assay type: cell-based, human; details: 24 h
Description: We also studied the effect of Compounds 16, 23, 26 and 33 on tumor cell proliferation in the presence of PD-1 expressing Jurkat T-cells. For this assay, first interferon γ stimulated HT-29 cells were treated for 24 h with the selected compounds at 10 µM in presence of Jurkat T cells. Then, living cells were counted using trypan blue and a Neubauer chamber and by flow cytometry.
In 12-well plates, 10^5 HT-29 cells per well were seeded and incubated for 24 h with cell culture medium supplemented with IFN-γ (10 ng/mL; human, Invitrogen®) then medium was change by one containing 4 × 10^5 Jurkat T cells per well and 10 μM of the corresponding compound or DMSO for the control. After 24 h of incubation, supernatants were collected to determine Jurkat T cell living cells and, on the other hand, HT-29 cells were collected with trypsin. Both types of suspension cells were counted with the Neubauer chamber and trypan blue and also by flow cytometry.

[4] = tested on: HMEC-1 cells; experiment: Tube formation inhibition assay; assay type: cell-based, human; details: HMEC-1 on Matrigel, 20 h incubation; average of three experiments
Description: (§4) HT-29, MCF-7, HeLa, A549 and HEK-293 cell lines were maintained in Dulbecco’s modified Eagle’s medium (DMEM) containing glucose (1 g/L), glutamine (2 mM), penicillin (50 μg/mL), streptomycin (50 μg/mL), and amphotericin B (1.25 μg/mL), supplemented with 10% FBS. HMEC-1 cell line was maintained in Dulbecco’s modified Eagle’s medium (DMEM)/low glucose containing glutamine (2 mM), penicillin (50 μg/mL), streptomycin (50 μg/mL), and amphotericin B (1.25 μg/mL), supplemented with 10% FBS. For the development of tube formation assays in Matrigel, HMEC-1 cells were cultured in EGM-2MV Medium supplemented with EGM-2MV SingleQuots.
Wells of an IBIDI μ-slide angiogenesis (IBIDI, Martinsried, Germany) were coated with 12 μL of Matrigel® (10 mg/mL, BD Biosciences) at 4 °C. After gelatinization at 37 °C for 30 min, HMEC-1 cells were seeded at 2 × 10^4 cells/well in 35 μL of culture medium on top of the Matrigel and were incubated 30 min at 37 °C while are attached. Then, compounds were added dissolved in 35 μL of culture medium and after 20 h of incubation at 37 °C, tube destruction was evaluated.

[5] = tested on: HMEC-1 (human microvascular endothelial cells); experiment: Cell proliferation assay (MTT); assay type: cell-based; details: HMEC-1, 48 h, 2 days incubation, average ± SD of three experiments
Source text: (§5) The ability of Ureas 13–33 to inhibit cell proliferation was established by means of their IC50 values towards the human tumor cell lines HT-29 (colon adenocarcinoma), MCF-7 (breast adenocarcinoma), HeLa (epithelioid cervix carcinoma) and A549 (pulmonary adenocarcinoma), as well as towards the endothelial cell line HMEC-1 (human microvascular endothelial cells) and the non-tumor cell line HEK-293 (human embryonic kidney cells).
as §4
(§6) In 96-well plates, 3 × 10^3 (HeLa, A549, HMEC-1, HEK-293) or 5 × 10^3 (HT-29, MCF-7) cells per well were incubated with serial dilutions of the tested compounds in a total volume of 100 μL of their respective growth media. The 3-(4,5-dimethylthiazol-2-yl)-2,5-diphenyltetrazolium bromide (MTT; Sigma Chemical Co.) dye reduction assay in 96-well microplates was used. After 2 days of incubation (37 °C, 5% CO2 in a humid atmosphere), 10 μL of MTT (5 mg/mL in phosphate-buffered saline, PBS) was added to each well, and the plate was incubated for a further 3 h (37 °C). After that, the supernatant was discarded and replaced by 100 µL of DMSO to dissolve formazan crystals. The absorbance was then read at 540 nm by spectrophotometry. For all concentrations of compound, cell viability was expressed as the percentage of the ratio between the mean absorbance of treated cells and the mean absorbance of untreated cells. Three independent experiments were performed, and the IC50 values (i.e., concentration half inhibiting cell proliferation) were graphically determined using GraphPad Prism 4 software.

[6] = tested on: HEK-293 (human embryonic kidney cells); experiment: Cell proliferation assay (MTT); assay type: cell-based; details: HEK293, 48 h, 2 days incubation, average ± SD of three experiments
Source text: as §5, §4, §6

[7] = tested on: MCF-7 (breast adenocarcinoma); experiment: Cell proliferation assay (MTT); assay type: cell-based; details: Homo sapiens, MCF7, 48 h, 2 days incubation, average ± SD of three experiments
Source text: as §5, §4, §6

[8] = tested on: HeLa (epithelioid cervix carcinoma); experiment: Cell proliferation assay (MTT); assay type: cell-based; details: Homo sapiens, 48 h, 2 days incubation, average ± SD of three experiments
Source text: as §5, §4, §6

[9] = tested on: HT-29 (colon adenocarcinoma); experiment: Cell proliferation assay (MTT); assay type: cell-based; details: Homo sapiens, HT-29, 48 h, 2 days incubation, average ± SD of three experiments
Source text: as §5, §4, §6

[10] = tested on: A549 (pulmonary adenocarcinoma); experiment: Cell proliferation assay (MTT); assay type: cell-based; details: Homo sapiens, A549, 48 h, 2 days incubation, average ± SD of three experiments
Source text: as §5, §4, §6

T1 sequence (Q9NZQ7 19-290): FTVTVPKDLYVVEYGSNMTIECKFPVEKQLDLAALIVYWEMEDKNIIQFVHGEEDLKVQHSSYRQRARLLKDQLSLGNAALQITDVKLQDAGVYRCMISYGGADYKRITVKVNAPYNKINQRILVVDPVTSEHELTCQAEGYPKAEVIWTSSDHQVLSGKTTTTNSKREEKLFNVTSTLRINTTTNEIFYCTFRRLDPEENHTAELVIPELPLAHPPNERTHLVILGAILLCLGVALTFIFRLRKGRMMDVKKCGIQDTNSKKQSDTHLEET

PD-L1 (%) relative expression [1]: 17 ± 5%
PD-L1 (%) relative expression [2]: 23 ± 8%
IC50 [7]: 24 ± 7 µM
IC50 [8]: 12 ± 4 µM
IC50 [9]: 17 ± 1 µM
IC50 [10]: 12 ± 2 µM
Structure (SMILES): COc1ccc(/C=C\c2cccc(NC(=O)Nc3ccc(Br)cc3)c2)cc1 [Compound 16]
inhibition at 10 µM ([3]; Homo sapiens, HT-29, co-cultured with Jurkat T-cells): ~90%
Living HT-29 cell proliferation (%) ([3]; IFN-γ stimulated HT-29 co-cultured with Jurkat T cells, 10 µM, five experiments): 9%
Minimum Active Conc. (inhibition of tube formation) [4]: 10 µM
IC50 [5]: 27 ± 8 µM
IC50 [6]: 10 ± 2 µM
